{"source": "paper PMC10327353", "about": "(Breast Cancer Research : BCR, 2023)", "key": {"[1]": {"test_system": "BT474C1-Luci Mono1 BM xenograft", "experiment": "BM (brain metastasis) BT474C1-Luci Mono1 xenograft model", "type": "in vivo, nude mice", "method": "The BM model was established by intracerebral (ICB) injection of 4 µl of cell suspension containing 3 × 10^5 cells into each mouse following similar procedures published (30). In brieft, 17β- ESTRADIOL (90-day release 0.36 mg/pellet) were injected subcutaneously 24 hrs before cell inoculation. Under anesthesia, a sagittal incision (approximately 1 cm long) was made over the parieto-occipital bone using a sterile scalpel. Then a hole was punctured on the skull at 2.5 mm to the right of the bregma and 1 mm anterior to the coronal suture using a sterile 25-gauge sharp drill. […] The bioluminescent signals of the implanted cells were measured by the Xenogen IVIS spectrum imaging system (PerkinElmer, USA) to monitor tumor growth. […]\nIn both BM and LM models, the day of randomization was defined as Day 0 and the treatment was started one day after randomization. The bioluminescence signals and body weight of the mice were measured once weekly. Relative bioluminescence intensity on a specific day was calculated by dividing the bioluminescence intensity on that day by the bioluminescence intensity on Day 0. The tumour growth inhibition (TGI) was calculated by formula: TGI (%) = (1-(relative bioluminescence intensity of treated group)/(relative bioluminescence intensity of control group)) x 100.Establishment of SC model"}, "[2]": {"test_system": "BT474C1-Luci Mono1 SC xenograft", "experiment": "SC (subcutaneous) BT474C1-Luci Mono1 xenograft model", "type": "in vivo, nude mice", "method": "Tumor cell suspension at 5 × 10^6 were injected subcutaneously in a total volume of 0.2 ml (1:1 with ECM Gel) into each mouse. 17β-ESTRADIOL (90-day release, 0.36 mg/pellet) were implanted 24 hrs before cells were injected subcutaneously. Tumor nodules were measured in two dimensions with caliper and the tumor volume was calculated using the following formula: tumor volume = (length × width^2) × 0.5. Tumor-bearing mice were randomized into different treatment groups when the mean tumor volume reached around 150 mm^3."}, "HER2": {"target": "HER2 (Homo sapiens, UniProt P04626)", "sequence (P04626 23-1255)": "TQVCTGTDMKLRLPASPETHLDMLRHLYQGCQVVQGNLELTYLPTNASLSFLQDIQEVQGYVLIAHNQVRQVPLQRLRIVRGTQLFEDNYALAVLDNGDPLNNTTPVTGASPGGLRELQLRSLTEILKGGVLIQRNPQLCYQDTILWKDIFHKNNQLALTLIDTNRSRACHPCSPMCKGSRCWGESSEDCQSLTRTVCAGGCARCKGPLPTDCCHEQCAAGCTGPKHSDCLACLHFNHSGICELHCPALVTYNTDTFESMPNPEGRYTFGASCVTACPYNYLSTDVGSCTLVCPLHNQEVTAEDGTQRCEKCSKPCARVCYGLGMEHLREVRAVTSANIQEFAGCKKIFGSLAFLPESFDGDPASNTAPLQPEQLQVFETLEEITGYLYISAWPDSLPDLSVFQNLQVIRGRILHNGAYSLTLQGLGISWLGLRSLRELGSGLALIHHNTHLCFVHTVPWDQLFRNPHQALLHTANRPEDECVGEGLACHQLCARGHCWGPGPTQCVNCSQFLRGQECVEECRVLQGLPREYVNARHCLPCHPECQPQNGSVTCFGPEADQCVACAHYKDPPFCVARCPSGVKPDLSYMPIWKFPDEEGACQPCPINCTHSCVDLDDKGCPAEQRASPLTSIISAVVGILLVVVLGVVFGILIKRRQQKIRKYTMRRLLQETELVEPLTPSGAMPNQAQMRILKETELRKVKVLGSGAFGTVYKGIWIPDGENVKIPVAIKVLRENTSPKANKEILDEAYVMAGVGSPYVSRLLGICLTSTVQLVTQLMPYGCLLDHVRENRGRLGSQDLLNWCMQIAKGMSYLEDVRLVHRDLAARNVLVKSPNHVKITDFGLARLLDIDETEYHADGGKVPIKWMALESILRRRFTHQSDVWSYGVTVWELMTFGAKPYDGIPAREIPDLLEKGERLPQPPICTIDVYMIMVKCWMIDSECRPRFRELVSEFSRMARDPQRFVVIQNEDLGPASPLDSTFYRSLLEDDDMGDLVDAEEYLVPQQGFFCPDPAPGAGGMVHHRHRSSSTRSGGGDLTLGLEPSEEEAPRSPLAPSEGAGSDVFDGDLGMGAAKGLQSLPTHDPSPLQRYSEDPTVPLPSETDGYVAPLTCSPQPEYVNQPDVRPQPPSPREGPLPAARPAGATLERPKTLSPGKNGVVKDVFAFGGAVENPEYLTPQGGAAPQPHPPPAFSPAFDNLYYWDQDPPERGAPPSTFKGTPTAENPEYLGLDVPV", "experiment": "In vitro HER2 enzymatic assay (Lance Ultra Kinase Assay)", "type": "biochemical", "design": "purchased Thermo Fisher PR4918A", "details": "recombinant HER2, 2 mM ATP; read-out: IC50 against HER2 in the enzymatic assay", "method": "Recombinant HER2 was purchased from Thermo Fisher (Cat. # PR4918A). The inhibition potency of compounds against HER2 enzyme was assessed using Lance Ultra Kinase Assay.\nIn brief, recombinant kinases were pre-incubated in the presence or absence of the compound at room temperature for 30 minutes. The reaction was initiated by the addition of the ATP and substrate peptide. After 60 minutes of incubation, the reaction was stopped by the addition of the detection reagent mix containing EDTA. The fluorescence was measured at 615 nm and 665 nm, respectively, with excitation wavelength at 320 nm. The calculated signal ratio of 665 nm/615 nm is proportional to the kinase activity."}}}
{"compound": "COc1cc(O[C@H]2CCN(C)CC2(F)F)c2c(Nc3ccc(Oc4ccn5ncnc5c4)c(C)c3)ncnc2c1", "note": "[DZD1516]", "values": [{"measurement": "TGI", "setting": "[1]; 100 mg/kg twice daily", "value": 48, "unit": "%"}, {"measurement": "TGI", "setting": "[1]; 150 mg/kg twice daily", "value": 79, "unit": "%"}, {"measurement": "antitumor efficacy", "setting": "[2]; 100 mg/kg or 150 mg/kg twice daily", "value": "tumor remission was achieved"}, {"measurement": "antitumor efficacy", "setting": "[2]; monotherapy 50 mg/kg (data not shown)", "value": "tumor shrinkage or complete tumor remission"}, {"measurement": "IC50", "setting": "HER2", "value": 0.56, "unit": "nM"}]}
